Data reported in patent EP0552417B1, “Cyclic peptides and use thereof” (priority 1991, dated 1993).
Where two headings read alike, the source gives them in different places. Non-standard residues stand in square brackets, D forms with d. Residues, ends and D or L forms follow the SMILES beside them. *: point of attachment. NMeW = CN[C@@H](Cc1c[nH]c2ccccc12)C(=O)O; NMeF = CN[C@@H](Cc1ccccc1)C(=O)O; NMeL = CN[C@@H](CC(C)C)C(=O)O; X3 = O=C(Cc1c[nH]c2ccccc12)*; Orn = NCCC[C@H](N)C(=O)O; PhAc = O=C(Cc1ccccc1)*; Sar = CNCC(=O)O

What was measured:
ETB = ETB radio receptor assay *2, 125I-endothelin-1, guinea pig kidney crude membrane fraction; type: binding, Guinea pigs; conditions: relative activity, 37 °C, 90 minutes
Description: ETB Radio Receptor Assay *2
In the endothelin radio receptor assay, guinea pigs' kidneys were used. Guinea pigs (Std Hartrey, male 250 g, Japan SLC Ltd.) were made to have a cerebral concussion and sacrificed by bleeding from carotid arteries to pick up the kidneys and removed fat therefrom to prepare the kidneys. The obtained kidneys were sliced and homogenized by politron homogenizer in 20 ml of 50 mM Tris-HCl buffer [pH 7.4; 20 mM NaHCO3, 0.1 mM PMSF (Phenylmethylsulfonyl Fluoride), 1 mM EDTA (Ethylenediaminetetraacetic acid)] per one kidney. The homogenized kidney was applied to a centrifugation at 1,000 x g for 15 minutes and the supernatant was further applied to a centrifugation for 20 minutes at 30,000 x g. The resulting precipitate was twice washed with 50 mM Tris-HCl buffer (pH 7.4) containing 0.1 mM PMSF, 1 mM EDTA. The resultant was stored at -80 °C as a crude receptor membrane fraction and was used as the suspension in the following buffer when necessary.
740 Bq of ^125I-endothelin-1 (81.4 TBq/mmol, Du Pont, USA) as a radio ligand, the crude membrane fraction (2.1 µg protein) and samples were added to the following buffer. The reaction was performed at 37 °C, for 90 minutes in 0.2 ml of the buffer [50 mM Tris-HCl buffer (pH 7.4) containing 0.1 mM PMSF, 1 mM EDTA, 0.2% bovine serum albumin].
The reaction was stopped by fast filtration on a glass filter (GF/B, Wattman, USA) by Cell Harvestor (290 PHD, Cambridge-Technology, Great Britain), and the filter was three times washed with 50 mM Tris-HCl buffer (pH 7.4). Radio activity remained on the filter was assayed by a gamma counter.

[1] = molecular target: T1, endothelin receptor A (ETA) (Sus scrofa, UniProt Q29010); test: Assay of affinity for receptor (1): binding activity on ETA receptor, 125I-labeled endothelin-1, porcine heart membrane fraction; set-up: key: relative specific activity; reference cyclic pentapeptide ETA binding = 1.0; conditions: specific activity, taking the binding activity of control cyclo[-D-Glu-Ala-D-aIle-Leu-D-Trp-] on receptor A as 1.0, 25°C, 1 hour
T1 construct: A membrane fraction prepared from the porcine heart; from tissue; host or cells: porcine heart membrane fraction
T1 sequence (Q29010 21-427): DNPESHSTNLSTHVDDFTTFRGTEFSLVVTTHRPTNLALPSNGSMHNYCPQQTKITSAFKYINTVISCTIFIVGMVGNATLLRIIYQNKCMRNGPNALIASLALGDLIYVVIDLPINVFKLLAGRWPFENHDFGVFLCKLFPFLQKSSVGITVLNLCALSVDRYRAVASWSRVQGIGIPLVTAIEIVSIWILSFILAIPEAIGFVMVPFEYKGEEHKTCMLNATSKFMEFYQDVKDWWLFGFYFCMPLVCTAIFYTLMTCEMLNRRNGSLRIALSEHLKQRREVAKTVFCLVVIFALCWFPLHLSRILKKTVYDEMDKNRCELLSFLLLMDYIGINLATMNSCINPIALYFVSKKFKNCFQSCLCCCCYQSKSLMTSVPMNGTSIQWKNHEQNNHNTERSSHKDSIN
Description: Assay of Affinity for Receptor (1) ... Binding Activity on ETA Receptor
A membrane fraction prepared from the porcine heart was diluted to 0.15 mg/ml by using a buffer solution for assay, and 100 µl of the resulting suspension of the membrane fraction was poured into each assay tube to use for assay. To this suspension of the membrane fraction was added 2 µl of 5 nM ^125I-labeled endothelin-1 solution. Further, 3 µl of a test peptide solution was added thereto, followed by incubation at a temperature of 25°C for 1 hour. Then, the resulting suspension was diluted with 900 µl of the buffer solution for assay cooled with ice, and thereafter separated into a supernatant and a precipitate by centrifugation at 12,000 X g for 10 minutes. Cell membranes and an endothelin receptor A (ETA) embedded therein were contained in the precipitate, and radioactive iodine-labeled endothelin combined with the receptor was also recovered in the precipitate. Accordingly, the amount of radioactive iodine-labeled endothelin combined with the endothelin receptor A (ETA) was determined by measuring the amount of radioactive iodine contained in the precipitate with a gamma-ray counter. The cyclic pentapeptide described in Japanese Patent Application No. 2-413328/1990, cyclo[-D-Glu-Ala-D-aIle-Leu-D-Trp-], was used as a control compound. The numerical value of ETA shown in Table 1 is the value of specific activity, taking the binding activity of this cyclic pentapeptide on the receptor A as 1.0. The binding activity (IC50) of this cyclic pentapeptide on the ETA receptor is 2x10^-6 M.

[2] = amide bond, 18-membered ring, DMF, 4 steps
[3] = HONB/DCC preactivation, TEA, 5.0 mM
[4] = HONB ester (HONB/DCC preactivation)/TEA, 5.0 mM

Compound	Binding Activity on ET Receptor (R. act.) ETB*2 (ETB)	Binding Activity on ET Receptor (R. act.) ETA [1]	other results
CC(C)C[C@@H]1NC(=O)[C@@H](CC(C)C)NC(=O)[C@@H]2CCCN2C(=O)[C@H](CC(=O)O)NC(=O)[C@@H](CC(=O)O)NC(=O)[C@@H](Cc2c[nH]c3ccccc23)NC1=O [Example 30, Cyclo[-D-Asp-Asp-Pro-D-Leu-Leu-D-Trp-]] (cyclo(DP[dL]L[dW][dD]))	9.1	4.4	
CC(C)C[C@@H]1NC(=O)[C@@H](CC(C)C)NC(=O)[C@H]2CCCN2C(=O)[C@H](CC(=O)O)NC(=O)[C@@H](CC(=O)O)NC(=O)[C@@H](Cc2c[nH]c3ccccc23)NC1=O [Example 31, Cyclo[-D-Asp-Asp-D-Pro-D-Leu-Leu-D-Trp-]] (cyclo(D[dP][dL]L[dW][dD]))	1.0	2.6	
CC(C)C[C@@H]1NC(=O)[C@@H](CC(C)C)NC(=O)[C@H](CC(=O)O)NC(=O)[C@H](C)NC(=O)[C@@H](CCC(=O)O)NC(=O)[C@@H](Cc2c[nH]c3ccccc23)NC1=O [Example 41, Cyclo[-D-Glu-Ala-Asp-D-Leu-Leu-D-Trp-]] (cyclo(AD[dL]L[dW][dE]))	26	2.1	
CC(C)C[C@@H]1NC(=O)[C@@H](CC(C)C)NC(=O)[C@H](CC(=O)O)NC(=O)CN(C)C(=O)[C@@H](CC(=O)O)NC(=O)[C@@H](Cc2c[nH]c3ccccc23)NC1=O [Example 46, Cyclo[-D-Asp-Sar-Asp-D-Leu-Leu-D-Trp-]] (cyclo(D[dL]L[dW][dD][Sar]))	75	8.1	
CC(C)C[C@@H]1NC(=O)[C@@H](CC(C)C)NC(=O)[C@H](CC(=O)O)NC(=O)[C@H](CC(C)C)N(C)C(=O)[C@@H](CC(=O)O)NC(=O)[C@@H](Cc2c[nH]c3ccccc23)NC1=O [Example 47, Cyclo[-D-Asp-N-MeLeu-Asp-D-Leu-Leu-D-Trp-]] (cyclo(D[dL]L[dW][dD][NMeL]))	17	6.8	
CC(C)C[C@@H]1NC(=O)[C@@H](CC(C)C)NC(=O)[C@H](CC(=O)O)NC(=O)[C@H](Cc2ccccc2)N(C)C(=O)[C@@H](CC(=O)O)NC(=O)[C@@H](Cc2c[nH]c3ccccc23)NC1=O [Example 48, Cyclo[-D-Asp-N-MePhe-Asp-D-Leu-Leu-D-Trp-]] (cyclo(D[dL]L[dW][dD][NMeF]))	13	2.7	
CC(C)C[C@@H]1NC(=O)[C@@H](CC(C)C)NC(=O)[C@H](CC(=O)O)NC(=O)[C@H](Cc2c[nH]c3ccccc23)N(C)C(=O)[C@@H](CC(=O)O)NC(=O)[C@@H](Cc2c[nH]c3ccccc23)NC1=O [Example 67, Cyclo[-D-Asp-N-MeTrp-Asp-D-Leu-Leu-D-Trp-]] (cyclo(D[dL]L[dW][dD][NMeW]))	30	9.1	
CC(C)C[C@@H]1NC(=O)[C@@H](CC(C)C)NC(=O)[C@H](CC(=O)O)NC(=O)[C@H](CCCNC(=O)Cc2ccccc2)NC(=O)[C@@H](CC(=O)O)NC(=O)[C@@H](Cc2c[nH]c3ccccc23)NC1=O [Example 80, cyclo[-D-Asp-Orn(COCH2Ph)-Asp-D-Leu-Leu-D-Trp-]] (cyclo(D[dL]L[dW][dD][Orn](PhAc)))	380	260	
CC(C)C[C@@H]1NC(=O)[C@@H](CC(C)C)NC(=O)[C@H](CC(=O)O)NC(=O)[C@H](CCCNC(=O)Cc2c[nH]c3ccccc23)NC(=O)[C@@H](CC(=O)O)NC(=O)[C@@H](Cc2c[nH]c3ccccc23)NC1=O [Example 82, cyclo[-D-Asp-Orn(COCH2-Ind)-Asp-D-Leu-Leu-D-Trp-]] (cyclo(D[dL]L[dW][dD][Orn](X3)))	500	240	
CC(C)C[C@@H]1NC(=O)[C@@H](CC(C)C)NC(=O)[C@H](CC(=O)O)NC(=O)[C@H](Cc2c[nH]cn2)NC(=O)[C@@H](CC(=O)O)NC(=O)[C@@H](Cc2c[nH]c3ccccc23)NC1=O [Example 83, Cyclo[-D-Asp-His-Asp-D-Leu-Leu-D-Trp-]] (cyclo(D[dL]L[dW][dD]H))	43	15	
CC(C)C[C@@H]1NC(=O)[C@@H](CC(C)C)NC(=O)[C@H](CC(=O)O)NC(=O)[C@H](Cc2c[nH]c3ccccc23)NC(=O)[C@@H](CC(=O)O)NC(=O)[C@@H](Cc2cn(C)c3ccccc23)NC1=O [Example 95, Cyclo[-D-Asp-Trp-Asp-D-Leu-Leu-D-Trp(Me)-]]	330	110	
H-Acbu-Leu-dTrp-dAsp(OBzl)-Trp-Asp(OBzl)-ONB			ring closure, yield after HPLC ([2]; the molecule shown is the open-chain precursor, HONB/DCC (preformed ONB ester), TEA, 5.0 mM): 10.4%
cyclo[-D-Asp-Ala-Asp-D-Leu-Leu-D-Trp-]			ring closure, yield after HPLC [2, 3]: 18.2%
cyclo[-D-Asp-Ala-D-Asp-D-Leu-Leu-D-Trp-]			ring closure, yield after HPLC [2, 3]: 15.3%
cyclo[-D-Asp-Ala-D-Glu-D-Leu-Leu-D-Trp-]			ring closure, yield after HPLC [2, 3]: 10.8%
cyclo[-D-Asp-Ala-Glu-D-Leu-Leu-D-Trp-]			ring closure, yield after HPLC [2, 3]: 24.1%
cyclo[-D-Asp-Asn(CH2CH2-Ind)-Asp-D-Leu-Leu-D-Trp-]			ring closure, yield after HPLC ([2]; HONB/DCC (preactivation), HCl/dioxane, TEA, 3.2 mM): 19.4%
cyclo[-D-Asp-Asn(CH2CH2-Ind)-Asp-D-Thg(2)-Leu-D-Trp-]			ring closure, yield after HPLC ([2]; HONB/DCC preactivation, HCl, TEA, 5.0 mM): 9.5%
cyclo[-D-Asp-Asn(CH2CH2Ph)-Asp-D-Leu-Leu-D-Trp-]			ring closure, yield after HPLC ([2]; HONB/DCC (preactivation), HCl/dioxane, TEA, 3.5 mM): 24.1%
cyclo[-D-Asp-Asn(CH2Ph)-Asp-D-Leu-Leu-D-Trp-]			ring closure, yield after HPLC ([2]; HONB ester (HONB/DCC preactivation)/TEA, 3.5 mM): 23.8%
cyclo[-D-Asp-Asp-Ala-D-Leu-Leu-D-Trp-]			ring closure, yield after HPLC [2, 4]: 17.8%
cyclo[-D-Asp-Gln(Bzl)-Asp-D-Thg(2)-Leu-D-Trp-]			ring closure, yield after HPLC ([2]; HONB/DCC preactivation, HCl, TEA, 5.1 mM): 8.8%
cyclo[-D-Asp-Glu-Ala-D-Leu-Leu-D-Trp-]			ring closure, yield after HPLC [2, 4]: 20.6%
cyclo[-D-Asp-Gly-Ala-D-Leu-Leu-D-Trp-]			ring closure, yield after HPLC ([2]; HONB ester (HONB/DCC preactivation)/TEA, 5.9 mM): 19.2%
